Test results: BindingDB's records for doi:10.1021/jm980023c (F. Hoffmann-La Roche, 1998)

What was measured:
[1] = target: Beta-lactamase TEM-3 (Escherichia coli); test: Inhibitory activity against Escherichia coli TEM-3 Beta-lactamase
Beta-lactamase = Beta-lactamase (Pseudomonas aeruginosa (strain ATCC 15692 / DSM 22644 / CIP 104116 / JCM 14847 / LMG 12228 / 1C / PRS 101 / PAO1), UniProt P24735); test: Deacylation of 18SH Beta-lactamase of Pseudomonas aeruginosa
Beta-lactamase, sequence (P24735 whole entry): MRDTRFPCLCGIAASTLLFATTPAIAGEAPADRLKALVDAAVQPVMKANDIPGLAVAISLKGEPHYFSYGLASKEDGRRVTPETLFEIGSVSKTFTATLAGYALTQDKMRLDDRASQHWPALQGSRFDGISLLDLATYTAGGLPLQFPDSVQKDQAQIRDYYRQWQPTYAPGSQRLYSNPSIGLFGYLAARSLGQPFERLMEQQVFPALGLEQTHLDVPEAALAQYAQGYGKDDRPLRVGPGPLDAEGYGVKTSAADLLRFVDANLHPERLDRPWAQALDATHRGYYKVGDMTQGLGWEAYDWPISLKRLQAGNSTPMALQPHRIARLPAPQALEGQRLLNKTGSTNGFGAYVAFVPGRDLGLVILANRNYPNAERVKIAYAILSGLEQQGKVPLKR

NC(=O)c1ccc[n+](CC(=O)N2CC[C@@H]3[C@H]2C(=O)N3S(=O)(=O)[O-])c1
IC50 [1]: 0.7 µM

Cn1nnnc1S[C@@H]1CN(C(=O)OCc2ccccc2)[C@@H]2C(=O)N(S(=O)(=O)O)[C@@H]21 [Sodium; (1S,4R,5S)-2-benzyloxycarbonyl-4-(1-methyl-1H-tetrazol-5-ylsulfanyl)-7-oxo-2,6-diaza-bicyclo[3.2.0]heptane-6-sulfonate]
IC50 [1]: 0.035 µM

O=C(OCc1ccccc1)N1C[C@H](F)[C@@H]2[C@H]1C(=O)N2S(=O)(=O)O [Sodium; (1S,4S,5S)-2-benzyloxycarbonyl-4-fluoro-7-oxo-2,6-diaza-bicyclo[3.2.0]heptane-6-sulfonate]
IC50 [1]: 0.511 µM

NC(=O)c1cccc(NC(=O)N2CC[C@@H]3[C@H]2C(=O)N3S(=O)(=O)O)c1 [Sodium; (1S,5R)-2-(3-carbamoyl-phenylcarbamoyl)-7-oxo-2,6-diaza-bicyclo[3.2.0]heptane-6-sulfonate]
IC50 [1]: 4 µM

NC(=O)c1ccc(NC(=O)N2CC[C@@H]3[C@H]2C(=O)N3S(=O)(=O)O)cc1 [Sodium; (1S,5R)-2-(4-carbamoyl-phenylcarbamoyl)-7-oxo-2,6-diaza-bicyclo[3.2.0]heptane-6-sulfonate]
IC50 [1]: > 100 µM

O=C(Nc1ccc(O)cc1)N1CC[C@@H]2[C@H]1C(=O)N2S(=O)(=O)O [Sodium; (1S,5R)-2-(4-hydroxy-phenylcarbamoyl)-7-oxo-2,6-diaza-bicyclo[3.2.0]heptane-6-sulfonate]
IC50 [1]: > 100 µM

Cn1ccnc1SCC(=O)N1CC[C@@H]2[C@H]1C(=O)N2S(=O)(=O)O [Sodium; (1S,5R)-2-[2-(1-methyl-1H-imidazol-2-ylsulfanyl)-acetyl]-7-oxo-2,6-diaza-bicyclo[3.2.0]heptane-6-sulfonate]
IC50 [1]: > 100 µM

Cn1nnnc1SCC(=O)N1CC[C@@H]2[C@H]1C(=O)N2S(=O)(=O)O [Sodium; (1S,5R)-2-[2-(1-methyl-1H-tetrazol-5-ylsulfanyl)-acetyl]-7-oxo-2,6-diaza-bicyclo[3.2.0]heptane-6-sulfonate]
IC50 [1]: > 100 µM

Cc1nn(C)c(SCC(=O)N2CC[C@@H]3[C@H]2C(=O)N3S(=O)(=O)O)nc1=O [Sodium; (1S,5R)-2-[2-(2,6-dimethyl-5-oxo-2,5-dihydro-[1,2,4]triazin-3-ylsulfanyl)-acetyl]-7-oxo-2,6-diaza-bicyclo[3.2.0]heptane-6-sulfonate]
IC50 [1]: > 100 µM

O=C(CNc1ccc(O)cc1)N1CC[C@@H]2[C@H]1C(=O)N2S(=O)(=O)O [Sodium; (1S,5R)-2-[2-(4-hydroxy-phenylamino)-acetyl]-7-oxo-2,6-diaza-bicyclo[3.2.0]heptane-6-sulfonate]
IC50 [1]: 79.2 µM

Cn1cnnc1SCC(=O)N1CC[C@@H]2[C@H]1C(=O)N2S(=O)(=O)O [Sodium; (1S,5R)-2-[2-(4-methyl-4H-[1,2,4]triazol-3-ylsulfanyl)-acetyl]-7-oxo-2,6-diaza-bicyclo[3.2.0]heptane-6-sulfonate]
IC50 [1]: > 100 µM

NC(C(=O)N1CC[C@@H]2[C@H]1C(=O)N2S(=O)(=O)O)c1ccc(O)cc1 (stereo partly drawn) [Sodium; (1S,5R)-2-[2-amino-2-(4-hydroxy-phenyl)-acetyl]-7-oxo-2,6-diaza-bicyclo[3.2.0]heptane-6-sulfonate]
IC50 [1]: > 100 µM

NC(=O)/C=C1\CN(C(=O)OCc2ccccc2)[C@@H]2C(=O)N(S(=O)(=O)O)[C@H]12 [Sodium; (1S,5R)-2-benzyloxycarbonyl-4-[1-carbamoyl-meth-(E)-ylidene]-7-oxo-2,6-diaza-bicyclo[3.2.0]heptane-6-sulfonate]
IC50 [1]: 0.031 µM

O=C(OCc1ccccc1)N1CC[C@@H]2[C@H]1C(=O)N2S(=O)(=O)O [Sodium; (1S,5R)-2-benzyloxycarbonyl-7-oxo-2,6-diaza-bicyclo[3.2.0]heptane-6-sulfonate]
IC50 [1]: > 100 µM

CC(C)(C)OC(=O)N1CC[C@@H]2[C@H]1C(=O)N2S(=O)(=O)O [Sodium; (1S,5R)-2-tert-butoxycarbonyl-7-oxo-2,6-diaza-bicyclo[3.2.0]heptane-6-sulfonate]
IC50 [1]: > 100 µM | koff (Beta-lactamase): 0.000037 s⁻¹

NC(=O)Nc1ccc(NC(=O)N2CC[C@@H]3[C@H]2C(=O)N3S(=O)(=O)O)cc1 [Sodium; (1S,5R)-7-oxo-2-(4-ureido-phenylcarbamoyl)-2,6-diaza-bicyclo[3.2.0]heptane-6-sulfonate]
IC50 [1]: 100 µM

O=C1NCC[C@@H]1NC(=O)N1CC[C@@H]2[C@H]1C(=O)N2S(=O)(=O)O [Sodium; (1S,5R)-7-oxo-2-((S)-2-oxo-pyrrolidin-3-ylcarbamoyl)-2,6-diaza-bicyclo[3.2.0]heptane-6-sulfonate]
IC50 [1]: > 100 µM

O=C(NC1CCNCC1)N1CC[C@@H]2[C@H]1C(=O)N2S(=O)(=O)O [Sodium; (1S,5R)-7-oxo-2-(piperidin-4-ylcarbamoyl)-2,6-diaza-bicyclo[3.2.0]heptane-6-sulfonate]
IC50 [1]: > 100 µM | koff (Beta-lactamase): 0.0012 s⁻¹

CC(C)(C)OC(=O)N1CCC[C@@H]2[C@H]1C(=O)N2S(=O)(=O)O [Sodium; (1S,6R)-2-tert-butoxycarbonyl-8-oxo-2,7-diaza-bicyclo[4.2.0]octane-7-sulfonate]
IC50 [1]: > 100 µM | koff (Beta-lactamase): 0.0007 s⁻¹
